Experimental data from paper PMC5234776, “Study of the Antimicrobial Activity of Tilapia Piscidin 3 (TP3) and TP4 and Their Effects on Immune Functions in Hybrid Tilapia (Oreochromis spp.)” (PLoS ONE, 2017).
Peptide text beside a SMILES is read from it.

Assays:
[1] = tested on: IL-1β, IL-6, IL-8, Mcp-8, β-defensin; test: qPCR of immune-related gene expression in tilapia liver and spleen; assay type: in vivo, tilapia (Oreochromis spp.); settings: in words; for expression of immune-related genes IL-1β, IL-6, IL-8 and MCP-8: co-treatment or peptide treatment alone; for expression of TP2, TP3, TP4 or β-defensin antimicrobial peptide genes in liver: peptide alone or co-treatment, 3 hours after treatment
Description: Total RNA was isolated from the tilapia by peptide treatment before, concurrent with and after infection as described above. The groups included one that was only injected with V. vulnificus (2×10^5 CFU/fish) and one that was only injected with peptides (20 μg/fish). Samples were collected at 3, 6, 12, 24, and 48 hours after treatment to extract RNA, and the levels of tilapia total RNA obtained from the liver and spleen were determined with comparative real-time qRT-PCR analysis of all experimental groups. Real-time qRT-PCR was used to detect the levels of IL-1β (GenBank accession no. DQ061114.1), IL-6 (GenBank accession no. XM_005478656), IL-8 (GenBank accession no. NM001279706), Mcp-8 (GenBank accession no. XM_005478749) and β-defensin (GenBank accession no. KF294753). mRNA was isolated and transcribed into complementary first strands (c) according to previously published methods for real-time comparative qPCR to obtain DNA and detect the relative expression levels of each gene. All samples were examined in triplicate using a sample size of five tilapia. The reactions used to analyze gene expression consisted of 0.05 μg of total RNA. Comparative qRT-PCR Mastermix for the SYBR Green kit (Applied Biosystems, Perkin-Elmer) was used for quantification. The total reaction volume was 20 μl; the reactions were run in 96-well plates; and the program consisted of 40 cycles of 3 seconds at 95°C and 20 seconds at 60°C. We added a dissociation thermal start temperature of […] to each experiment to analyze the melting peaks of the generated PCR products. The data from each experiment were expressed as a ratio of the specific target gene expression/β-actin RNA expression. We used t-tests to compare groups, and multiple group comparisons were tested by ANOVA in SPSS software. Differences were defined as significant at P<0.05 (*), <0.01 (**), and <0.001 (***).

V. vulnificus [2] = test: microbe, parasite or virus in culture; assay type: cell-based, Vibrio vulnificus; settings: peptide treated from room temperature to as high as 100°C; 16 hours of incubation
Description: To understand the effects of pH on TP3 or TP4, the reagents were dissolved in ddH2O, 1 M HCl or 1 M NaOH to obtain solutions with different pH values. For the temperature-dependent functional study, the TP3 or TP4 was added to a solution in a water bath (Basic life, model BL3002, Taiwan) and incubated for 60 minutes at different temperatures (40, 60, 80, or 100°C). To evaluate the effects of TP3 and TP4 on pepsin and trypsin function, each peptide was incubated for 10 or 30 minutes with different concentrations of pepsin or trypsin (0.1, 1, or 10 μg/ml), […], according to a previously described MIC experimental protocol.

V. vulnificus [3] = test: In vivo bactericidal activity, bacterial load in tilapia liver; design: species or system tilapia (Oreochromis spp.); settings: for V. vulnificus bacterial load in the liver versus infected untreated fish: 20, 30 or 40 μg/fish, co-, pre- or post-treatment, in words; for bacterial clearance of V. vulnificus from the tilapia: after 48 hours
Description: Three groups of fish were used for these experiments. The first group was first injected with V. vulnificus (2×10^5 CFU/fish) followed by TP3 or TP4 peptides (20, 30, or 40 μg/fish) 0.5 hours later. A second group was first injected with TP3 or TP4 peptides (20, 30, or 40 μg/fish) and then, 0.5 hours later, with V. vulnificus (2×10^5 CFU/fish). A third group of tilapia was simultaneously injected (co-treated) with V. vulnificus (2×10^5 CFU/fish) and TP3 or TP4 peptides (20, 30, or 40 μg/fish). Liver samples were obtained from each group of tilapia at 3, 6, 9, 12, 24, and 48 hours after the final treatment and the tissues were homogenized in TSB medium before being spread onto TCBS plates. We incubated the plates at 28°C for 12 hours and then counted the number of bacterial colonies.

V. vulnificus [4] = test: Tilapia survival, co-treatment with V. vulnificus and peptide; assay type: in vivo, tilapia (Oreochromis spp.); settings: abdominal cavity, seven days
Source text: (§1) We obtained tilapia (Oreochromis spp.) from a commercial aquaculture company. The fish body lengths were 4.0±0.6 cm, and body weights were 3.1±0.3 g. The tilapia were maintained in a 2000 liter indoor aquarium at the Marine Research Station, Ilan, Taiwan. To study the efficacy with which TP3 and TP4 protect tilapia against V. vulnificus, we injected the bacteria into the abdominal cavities (peritoneum) of the tilapia using a syringe (29 Gx1/2, Terumo Medical, Elkton, MD, USA); control tilapia were injected with PBS-buffered saline. For the first trial in each group, we used 15 tilapia: (a) group 1 was injected with V. vulnificus (2×10^5 CFU/fish) only; (b) group 2 was injected with PBS only; and (c) group 3 was injected with bacterial cells (2×10^5 CFU/fish) combined with a mixture containing both TP3 and TP4 peptides (at 0.1, 1, 10, or 20 μg/fish) that had been incubated for 60 minutes at 28°C. Next, at 168 hours after the first injection, the tilapia that survived the first co-treatment were again injected with V. vulnificus (2×10^5 CFU/fish). For this second challenge, we chose tilapia with similar body weights and ages that had not been previously treated with V. vulnificus, TP3 or TP4 for the V. vulnificus-only group (control group), and we recorded the survival rate over seven days. For the third trial, each group contained 15 tilapia, each of which was injected with 20, 30, or 40 μg of TP3 or TP4 followed by V. vulnificus (2×10^5 CFU/fish) after 0.5, 1, or 2 hours. The survival rate was recorded after seven days. For the fourth trial, each group contained 15 tilapia, each of which was first injected with V. vulnificus (2×10^5 CFU/fish) and then with 20, 30, or 40 μg of TP3 or TP4 after 0.5, 1, or 2 hours; the survival rate was recorded over seven days. Each experimental group consisted of 15 fish per treatment and three replicates (triplicate groups of 15 fish per treatment). We performed multiple group comparisons by analysis of variance (ANOVA) using SPSS software, and pairwise comparisons of groups were performed using a t-test. Significant differences were indicated as *P<0.05 and **P<0.01.

V. vulnificus [5] = test: Tilapia survival, peptide injected after V. vulnificus infection (post-treatment); assay type: in vivo, tilapia (Oreochromis spp.); settings: seven days
Source text: as §1

[6] = co-injection of V. vulnificus and peptide 0.1 μg/fish
[7] = co-injection of V. vulnificus and peptide 1 μg/fish
[8] = co-injection of V. vulnificus and peptide 10 μg/fish
[9] = co-injection of V. vulnificus and peptide 20 μg/fish
[10] = peptide 20 μg/fish 0.5 hours after V. vulnificus
[11] = peptide 20 μg/fish 1 hour after V. vulnificus
[12] = peptide 20 μg/fish 2 hours after V. vulnificus
[13] = peptide 30 μg/fish 0.5 hours after V. vulnificus
[14] = peptide 30 μg/fish 1 hour after V. vulnificus
[15] = peptide 30 μg/fish 2 hours after V. vulnificus
[16] = peptide 40 μg/fish 0.5 hours after V. vulnificus
[17] = peptide 40 μg/fish 1 hour after V. vulnificus
[18] = peptide 40 μg/fish 2 hours after V. vulnificus

Structure (SMILES)	expression of immune-related genes IL-1β, IL-6, IL-8 and MCP-8 [1]	expression of TP2, TP3, TP4 or β-defensin antimicrobial peptide genes in liver [1]	concentration sufficient to eliminate V. vulnificus (V. vulnificus [2])	V. vulnificus bacterial load in the liver versus infected untreated fish (V. vulnificus [3])	bacterial clearance of V. vulnificus from the tilapia (V. vulnificus [3])	survival rate (V. vulnificus [4]; [6])	survival rate (V. vulnificus [4]; [7])	survival rate (V. vulnificus [4]; [8])	survival rate (V. vulnificus [4]; [9])	survival rate (V. vulnificus [5]; [10])	survival rate (V. vulnificus [5]; [11])	survival rate (V. vulnificus [5]; [12])	survival rate (V. vulnificus [5]; [13])	survival rate (V. vulnificus [5]; [14])	survival rate (V. vulnificus [5]; [15])	survival rate (V. vulnificus [5]; [16])	survival rate (V. vulnificus [5]; [17])	survival rate (V. vulnificus [5]; [18])	also measured
CC[C@H](C)[C@H](NC(=O)[C@H](CC(C)C)NC(=O)[C@H](CO)NC(=O)[C@H](Cc1c[nH]cn1)NC(=O)[C@@H](NC(=O)[C@H](Cc1c[nH]cn1)NC(=O)[C@H](CCCCN)NC(=O)CNC(=O)[C@@H](NC(=O)[C@H](CO)NC(=O)[C@H](Cc1ccccc1)NC(=O)[C@H](CC(C)C)NC(=O)CNC(=O)CNC(=O)[C@@H](NC(=O)[C@@H](NC(=O)[C@H](Cc1c[nH]cn1)NC(=O)[C@H](Cc1c[nH]cn1)NC(=O)[C@@H](NC(=O)[C@@H](N)Cc1ccccc1)[C@@H](C)CC)[C@@H](C)CC)[C@@H](C)CC)C(C)C)[C@@H](C)CC)C(=O)N[C@@H](Cc1c[nH]cn1)C(=O)NCC(=O)N[C@@H](Cc1c[nH]cn1)C(=O)O [TP3, tilapia piscidin 3] (H-FIHHIIGGLFSVGKHIHSLIHGH-OH)	down-regulation	down-regulated	250 µg/mL	significantly lower	100%	0%	0%	73.3%	95.3%	33.3%	20%	0%	33.3%	15.5%	4.5%	24.4%	8.9%	0%	IL-1β, IL-6, IL-8, Mcp-8 and β-defensin gene expression in liver ([1]; pre-treatment and post-treatment groups, three hours after infection with V. vulnificus): significantly higher levels; IL-1β, IL-6, IL-8 and β-defensin gene expression in spleen ([1]; pre-treatment and post-treatment, three hours after infection): significant increase
CC[C@H](C)[C@H](NC(=O)[C@H](C)NC(=O)[C@H](CCCCN)NC(=O)CNC(=O)[C@H](C)NC(=O)[C@H](CO)NC(=O)[C@H](Cc1ccccc1)NC(=O)[C@H](CC(C)C)NC(=O)CNC(=O)CNC(=O)[C@@H](NC(=O)[C@@H](NC(=O)[C@H](Cc1c[nH]cn1)NC(=O)[C@H](Cc1c[nH]cn1)NC(=O)[C@@H](NC(=O)[C@@H](N)Cc1ccccc1)[C@@H](C)CC)[C@@H](C)CC)[C@@H](C)CC)C(=O)N[C@@H](Cc1c[nH]cn1)C(=O)N[C@@H](CCCNC(=N)N)C(=O)N[C@@H](CC(C)C)C(=O)N[C@H](C(=O)N[C@@H](CCCNC(=N)N)C(=O)N[C@@H](CCCNC(=N)N)C(=O)N[C@@H](CCCNC(=N)N)C(=O)N[C@@H](CCCNC(=N)N)C(=O)N[C@@H](CCCNC(=N)N)C(=O)O)[C@@H](C)CC [TP4, tilapia piscidin 4] (H-FIHHIIGGLFSAGKAIHRLIRRRRR-OH)	down-regulation	down-regulated	31.2 µg/mL	significantly reduced	100%	73.3%	75%	86%	88.9%	48.9%	22.2%	4%	40%	20%	0%	2.2%	4.4%	6.7%	IL-1β, IL-6, IL-8 and Mcp-8 expression in spleen ([1]; peptide alone or co-injected with V. vulnificus, 12 hours after treatment): lower
